21 compounds from patent publication US10710986B2, “PD-1/PD-L1 inhibitors” (Gilead Sciences, Inc., priority 2018, dated 2020) can be followed below.

The target in the test is PD-1/PD-L1 (Homo sapiens (Human), UniProt Q9NZQ7). In words: PD-1/PD-L1 biochemical protein-protein interaction assay (ALPHA). As to conditions: 0.3 nM His tagged PD-L1, 2.5 nM biotinylated Fc-PD-1, 60 minutes at 25° C., read-out: IC50 PD-L1-PD1.
Sequence of PD-1/PD-L1 (Q9NZQ7 19-238): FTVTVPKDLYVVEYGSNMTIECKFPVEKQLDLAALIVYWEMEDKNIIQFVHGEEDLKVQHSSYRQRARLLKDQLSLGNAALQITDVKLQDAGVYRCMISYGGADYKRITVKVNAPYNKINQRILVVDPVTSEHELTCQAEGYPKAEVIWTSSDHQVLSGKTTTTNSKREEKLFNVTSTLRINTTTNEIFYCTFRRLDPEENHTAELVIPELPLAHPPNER
Turning to `COc1nc(-c2cccc(-c3cccc(-c4cnc(CN5CCC[C@@H]6C(=O)NC[C@@H]65)c(OC)n4)c3Cl)c2Cl)cnc1CNC[C@@H]1CCC(=O)N1` [compound 542], the IC50 – broadly, the concentration needed to halve the response being measured – was determined as 0.392 nM.

In the case of `COc1nc(-c2cccc(-c3cccc(-c4cnc(CNC[C@@H]5CCC(=O)N5)c(OC)n4)c3Cl)c2Cl)cnc1CNCC1CCN(C)C1=O` (stereo partly drawn) [compound 543], the IC50 stood at 0.2 nM. To `COc1nc(-c2cccc(-c3cccc(-c4cnc(CNCC56CC(O)(C5)C6)c(OC)n4)c3Cl)c2Cl)cnc1CNCC12CC(O)(C1)C2` [compound 544] belongs 0.238 nM; to `COc1nc(-c2cccc(-c3cccc(-c4cnc(CNCC56CC(O)(C5)C6)c(OC)n4)c3Cl)c2Cl)cnc1CNC[C@@H]1CCC(=O)N1` [compound 545], 0.214 nM. The result for `COc1nc(-c2cccc(-c3cccc(-c4cnc(CNCC5CN(S(C)(=O)=O)C5)c(OC)n4)c3Cl)c2Cl)cnc1CNCC1CN(S(C)(=O)=O)C1` [compound 546] reads 0.089 nM.

For `COc1nc(-c2cccc(-c3cccc(-c4cnc(CNC[C@@H]5CCC(=O)N5)c(OC)n4)c3Cl)c2Cl)cnc1CNCC1CN(S(C)(=O)=O)C1` [compound 547], the IC50 was 0.064 nM. To `COc1nc(-c2cccc(-c3cccc(-c4cnc(CN5CC(O)(C6CC6)C5)c(OC)n4)c3Cl)c2Cl)cnc1CN1CC(O)(C2CC2)C1` [compound 548] belongs 0.665 nM. For the compound `COc1nc(-c2cccc(-c3cccc(-c4cnc(CN5CC(O)(C6CC6)C5)c(OC)n4)c3Cl)c2Cl)cnc1CNC[C@@H]1CCC(=O)N1` [compound 549], the half-maximal inhibitory concentration (IC50) amounted to 0.194 nM. The result for `C#CC1(O)CN(Cc2ncc(-c3cccc(-c4cccc(-c5cnc(CN6CC(O)(C#C)C6)c(OC)n5)c4Cl)c3Cl)nc2OC)C1` [compound 550] reads 0.593 nM. The result for `C#CC1(O)CN(Cc2ncc(-c3cccc(-c4cccc(-c5cnc(CNC[C@@H]6CCC(=O)N6)c(OC)n5)c4Cl)c3Cl)nc2OC)C1` [compound 551] reads 0.464 nM. The result for `COc1nc(-c2cccc(-c3cccc(-c4cnc(CN5CC[C@@H](C(=O)O)C5)c(OC)n4)c3Cl)c2Cl)cnc1CNC[C@@H]1CCC(=O)N1` [compound 552] reads 0.144 nM; that for `COc1nc(-c2cccc(-c3cccc(-c4cnc(CN[C@@](C)(CO)C(=O)O)c(OC)n4)c3Cl)c2Cl)cnc1CNC[C@@H]1CCC(=O)N1` [compound 553], 0.118 nM; that for `CNC(=O)NC1CN(Cc2ncc(-c3cccc(-c4cccc(-c5cnc(CN6CC(NC(=O)NC)C6)c(OC)n5)c4Cl)c3Cl)nc2OC)C1` [compound 554], 0.099 nM. For the compound `CNC(=O)C1CN(Cc2ncc(-c3cccc(-c4cccc(-c5cnc(CN6CC(C(=O)NC)C6)c(OC)n5)c4Cl)c3Cl)nc2OC)C1` [compound 555], the IC50 worked out at 0.345 nM. To `COc1nc(-c2cccc(-c3cccc(-c4cnc(CN5CC(NS(C)(=O)=O)C5)c(OC)n4)c3Cl)c2Cl)cnc1CN1CC(NS(C)(=O)=O)C1` [compound 556] belongs 0.176 nM; to `CNC(=O)NC1CN(Cc2ncc(-c3cccc(-c4cccc(-c5cnc(CNC[C@@H]6CCC(=O)N6)c(OC)n5)c4Cl)c3Cl)nc2OC)C1` [compound 557], 0.09 nM. To `CNC(=O)C1CN(Cc2ncc(-c3cccc(-c4cccc(-c5cnc(CNC[C@@H]6CCC(=O)N6)c(OC)n5)c4Cl)c3Cl)nc2OC)C1` [compound 558] belongs 0.064 nM; to `COc1nc(-c2cccc(-c3cccc(-c4cnc(CN5CC(NS(C)(=O)=O)C5)c(OC)n4)c3Cl)c2Cl)cnc1CNC[C@@H]1CCC(=O)N1` [compound 559], 0.12 nM. To `COc1nc(-c2cccc(-c3cccc(-c4cnc(CNC5CS(=O)(=O)C5)c(OC)n4)c3Cl)c2Cl)cnc1CNC[C@@H]1CCC(=O)N1` [compound 560] belongs 0.144 nM; to `COc1nc(-c2cccc(-c3cccc(-c4cnc(CN[C@H]5C[C@](C)(O)C5)c(OC)n4)c3Cl)c2Cl)cnc1CN[C@H]1C[C@](C)(O)C1` [compound 561], 0.164 nM; to `COc1nc(-c2cccc(-c3cccc(-c4cnc(CNC[C@H]5C[C@@](C)(O)C5)c(OC)n4)c3Cl)c2Cl)cnc1CNC[C@H]1C[C@@](C)(O)C1` [compound 562], 0.151 nM.
